The term IC50 denotes the point on the concentration scale where inhibition reaches its midpoint.

Bounds are passed on as bounds.

Holding throughout (test): Enzymatic activity of PI3K isoforms, TR-FRET assay (PIP3 formation)
Holding throughout (type): biochemical

Test [1] concerns the target PI3Kδ (Homo sapiens (Human), UniProt O00329). Conditions: bound given in nM. The procedure:
(§1) Enzymatic activity of the class I PI3K isoforms was measured using a time-resolved fluorescence resonance energy transfer (TR-FRET) assay that monitors formation of the product 3,4,5-inositol triphosphate molecule (PIP3), as it competes with fluorescently labeled PIP3 for binding to the GRP-1 pleckstrin homology domain protein. An increase in […] product results in a decrease in TR-FRET signal as the labeled fluorophore is displaced from the GRP-1 protein binding site.
(§2) Class I PI3K isoforms were expressed and purified as heterodimeric recombinant proteins. All assay reagents and buffers for the TR-FRET assay were purchased from Millipore. […] After an assay reaction time of 30 minutes at 25° C., reactions were terminated with a final concentration of 10 mM EDTA, 10 nM labeled-PIP3, and 35 nM Europium labeled GRP-1 detector protein before reading TR-FRET on an Envision plate reader (Ex: 340 nm; Em: 615/665 nm; 100 μs delay and 500 μs read window).
(§3) IC50 are reported in units of nM. These assays generally produced results within 3-fold of the reported mean.

Test [2] has as its target PI3Kα (Homo sapiens (Human), UniProt P42336). Particulars: bound given in uM. As to the method:
as §1, §2, §3

The target of test [3] is PI3Kγ (Homo sapiens (Human), UniProt P48736). As to the method:
as §1
Class I PI3K isoforms were expressed and purified as heterodimeric recombinant proteins. All assay reagents and buffers for the TR-FRET assay were purchased from Millipore.
IC50 are reported in units of nM.

Sequence of PI3Kδ (O00329 whole entry, the tested form may be a part, canonical isoform): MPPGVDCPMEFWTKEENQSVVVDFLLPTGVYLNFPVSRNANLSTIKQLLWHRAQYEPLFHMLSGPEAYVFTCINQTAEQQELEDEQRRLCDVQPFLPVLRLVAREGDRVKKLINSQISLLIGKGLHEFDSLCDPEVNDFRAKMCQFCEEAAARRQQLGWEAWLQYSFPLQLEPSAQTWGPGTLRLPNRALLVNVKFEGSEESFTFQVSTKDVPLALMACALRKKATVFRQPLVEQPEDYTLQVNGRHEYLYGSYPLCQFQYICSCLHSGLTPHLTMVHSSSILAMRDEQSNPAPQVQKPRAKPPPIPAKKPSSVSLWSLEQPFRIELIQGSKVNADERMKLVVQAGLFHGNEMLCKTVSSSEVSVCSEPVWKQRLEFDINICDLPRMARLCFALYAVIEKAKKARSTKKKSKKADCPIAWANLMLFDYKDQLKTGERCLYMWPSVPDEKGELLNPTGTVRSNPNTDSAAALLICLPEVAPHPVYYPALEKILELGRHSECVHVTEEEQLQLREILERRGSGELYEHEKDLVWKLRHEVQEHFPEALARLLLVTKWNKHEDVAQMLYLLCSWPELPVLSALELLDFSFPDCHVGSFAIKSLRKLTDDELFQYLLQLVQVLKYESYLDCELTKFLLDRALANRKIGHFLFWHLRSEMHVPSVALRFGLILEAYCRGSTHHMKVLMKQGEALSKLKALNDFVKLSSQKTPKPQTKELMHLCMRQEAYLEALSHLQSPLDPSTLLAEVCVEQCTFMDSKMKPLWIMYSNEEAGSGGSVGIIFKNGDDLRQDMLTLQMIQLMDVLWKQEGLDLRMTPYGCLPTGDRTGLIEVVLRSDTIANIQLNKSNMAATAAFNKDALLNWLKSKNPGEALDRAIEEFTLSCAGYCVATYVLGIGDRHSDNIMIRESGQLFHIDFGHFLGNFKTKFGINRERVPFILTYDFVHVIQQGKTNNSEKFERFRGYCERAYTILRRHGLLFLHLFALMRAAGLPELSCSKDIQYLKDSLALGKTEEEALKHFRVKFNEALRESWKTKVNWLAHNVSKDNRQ
Sequence of PI3Kδ (P27986 whole entry partner, the tested form may be a part, canonical isoform): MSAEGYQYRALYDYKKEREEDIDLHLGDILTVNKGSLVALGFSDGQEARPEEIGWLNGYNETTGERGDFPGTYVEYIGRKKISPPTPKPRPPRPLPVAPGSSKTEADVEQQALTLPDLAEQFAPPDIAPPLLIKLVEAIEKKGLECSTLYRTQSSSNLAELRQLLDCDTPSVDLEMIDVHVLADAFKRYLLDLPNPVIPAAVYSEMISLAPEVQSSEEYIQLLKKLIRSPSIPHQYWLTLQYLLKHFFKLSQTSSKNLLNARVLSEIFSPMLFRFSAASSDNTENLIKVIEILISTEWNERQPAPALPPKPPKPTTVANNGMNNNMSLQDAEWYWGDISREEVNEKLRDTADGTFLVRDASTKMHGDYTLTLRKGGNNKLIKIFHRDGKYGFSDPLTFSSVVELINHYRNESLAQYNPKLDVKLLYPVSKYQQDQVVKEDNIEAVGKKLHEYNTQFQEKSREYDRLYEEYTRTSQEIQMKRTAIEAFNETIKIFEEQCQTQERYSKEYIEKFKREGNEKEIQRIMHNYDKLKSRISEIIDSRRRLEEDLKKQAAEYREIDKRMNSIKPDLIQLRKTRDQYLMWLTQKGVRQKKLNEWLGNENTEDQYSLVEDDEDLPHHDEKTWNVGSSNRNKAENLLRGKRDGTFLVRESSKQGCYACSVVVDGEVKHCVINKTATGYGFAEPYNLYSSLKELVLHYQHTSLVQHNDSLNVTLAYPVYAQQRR
Sequence of PI3Kγ (P48736 whole entry): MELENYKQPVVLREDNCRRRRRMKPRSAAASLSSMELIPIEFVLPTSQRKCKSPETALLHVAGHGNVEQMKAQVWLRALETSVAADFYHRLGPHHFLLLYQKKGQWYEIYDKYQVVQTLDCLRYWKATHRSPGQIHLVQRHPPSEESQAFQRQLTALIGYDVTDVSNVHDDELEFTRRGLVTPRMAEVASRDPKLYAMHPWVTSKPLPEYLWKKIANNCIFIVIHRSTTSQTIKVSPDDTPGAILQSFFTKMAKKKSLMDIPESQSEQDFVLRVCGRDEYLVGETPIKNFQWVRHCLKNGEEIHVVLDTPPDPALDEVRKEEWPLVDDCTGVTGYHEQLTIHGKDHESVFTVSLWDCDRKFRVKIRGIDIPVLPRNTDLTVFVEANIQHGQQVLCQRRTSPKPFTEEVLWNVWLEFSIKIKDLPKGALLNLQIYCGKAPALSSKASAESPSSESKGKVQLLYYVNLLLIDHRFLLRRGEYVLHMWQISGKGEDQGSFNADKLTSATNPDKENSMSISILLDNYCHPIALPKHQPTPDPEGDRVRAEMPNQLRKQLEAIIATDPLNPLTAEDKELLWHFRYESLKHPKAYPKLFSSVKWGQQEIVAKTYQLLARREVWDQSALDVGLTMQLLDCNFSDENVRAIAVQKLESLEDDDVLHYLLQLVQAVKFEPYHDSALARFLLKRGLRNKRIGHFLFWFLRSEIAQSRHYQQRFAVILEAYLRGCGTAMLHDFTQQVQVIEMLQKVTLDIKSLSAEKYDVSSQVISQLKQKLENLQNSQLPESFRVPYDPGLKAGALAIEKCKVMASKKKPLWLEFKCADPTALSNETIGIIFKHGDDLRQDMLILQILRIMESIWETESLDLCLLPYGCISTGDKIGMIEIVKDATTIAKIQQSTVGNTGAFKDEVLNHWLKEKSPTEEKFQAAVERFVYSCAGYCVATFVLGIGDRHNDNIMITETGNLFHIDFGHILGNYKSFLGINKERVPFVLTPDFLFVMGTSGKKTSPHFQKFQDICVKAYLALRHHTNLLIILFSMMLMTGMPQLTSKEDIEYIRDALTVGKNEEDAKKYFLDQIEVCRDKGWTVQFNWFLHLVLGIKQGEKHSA
Sequence of PI3Kγ (Q8WYR1 whole entry partner): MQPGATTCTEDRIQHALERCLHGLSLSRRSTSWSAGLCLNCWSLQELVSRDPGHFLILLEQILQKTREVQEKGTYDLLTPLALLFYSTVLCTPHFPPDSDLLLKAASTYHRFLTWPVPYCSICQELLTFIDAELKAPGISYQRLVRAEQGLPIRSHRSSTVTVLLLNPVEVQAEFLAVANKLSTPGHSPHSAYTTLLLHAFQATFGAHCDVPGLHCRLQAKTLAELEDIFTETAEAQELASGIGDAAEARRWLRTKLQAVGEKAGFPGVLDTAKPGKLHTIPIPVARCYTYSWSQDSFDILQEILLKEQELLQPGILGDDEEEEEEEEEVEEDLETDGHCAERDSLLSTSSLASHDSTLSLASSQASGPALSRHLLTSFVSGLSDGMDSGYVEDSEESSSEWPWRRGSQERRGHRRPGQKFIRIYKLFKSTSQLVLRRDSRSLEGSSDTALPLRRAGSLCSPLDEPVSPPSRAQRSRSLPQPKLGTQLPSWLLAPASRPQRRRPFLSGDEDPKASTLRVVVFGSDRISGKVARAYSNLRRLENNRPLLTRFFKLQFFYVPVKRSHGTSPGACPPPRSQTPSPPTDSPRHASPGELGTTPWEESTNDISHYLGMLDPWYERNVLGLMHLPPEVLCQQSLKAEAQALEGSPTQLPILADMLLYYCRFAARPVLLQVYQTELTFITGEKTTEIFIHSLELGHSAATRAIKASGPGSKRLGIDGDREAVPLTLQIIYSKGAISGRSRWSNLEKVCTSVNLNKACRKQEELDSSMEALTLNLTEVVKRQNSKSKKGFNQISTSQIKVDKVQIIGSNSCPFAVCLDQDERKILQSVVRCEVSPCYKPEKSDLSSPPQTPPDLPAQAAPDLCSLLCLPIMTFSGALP
Sequence of PI3Kα (P42336 whole entry): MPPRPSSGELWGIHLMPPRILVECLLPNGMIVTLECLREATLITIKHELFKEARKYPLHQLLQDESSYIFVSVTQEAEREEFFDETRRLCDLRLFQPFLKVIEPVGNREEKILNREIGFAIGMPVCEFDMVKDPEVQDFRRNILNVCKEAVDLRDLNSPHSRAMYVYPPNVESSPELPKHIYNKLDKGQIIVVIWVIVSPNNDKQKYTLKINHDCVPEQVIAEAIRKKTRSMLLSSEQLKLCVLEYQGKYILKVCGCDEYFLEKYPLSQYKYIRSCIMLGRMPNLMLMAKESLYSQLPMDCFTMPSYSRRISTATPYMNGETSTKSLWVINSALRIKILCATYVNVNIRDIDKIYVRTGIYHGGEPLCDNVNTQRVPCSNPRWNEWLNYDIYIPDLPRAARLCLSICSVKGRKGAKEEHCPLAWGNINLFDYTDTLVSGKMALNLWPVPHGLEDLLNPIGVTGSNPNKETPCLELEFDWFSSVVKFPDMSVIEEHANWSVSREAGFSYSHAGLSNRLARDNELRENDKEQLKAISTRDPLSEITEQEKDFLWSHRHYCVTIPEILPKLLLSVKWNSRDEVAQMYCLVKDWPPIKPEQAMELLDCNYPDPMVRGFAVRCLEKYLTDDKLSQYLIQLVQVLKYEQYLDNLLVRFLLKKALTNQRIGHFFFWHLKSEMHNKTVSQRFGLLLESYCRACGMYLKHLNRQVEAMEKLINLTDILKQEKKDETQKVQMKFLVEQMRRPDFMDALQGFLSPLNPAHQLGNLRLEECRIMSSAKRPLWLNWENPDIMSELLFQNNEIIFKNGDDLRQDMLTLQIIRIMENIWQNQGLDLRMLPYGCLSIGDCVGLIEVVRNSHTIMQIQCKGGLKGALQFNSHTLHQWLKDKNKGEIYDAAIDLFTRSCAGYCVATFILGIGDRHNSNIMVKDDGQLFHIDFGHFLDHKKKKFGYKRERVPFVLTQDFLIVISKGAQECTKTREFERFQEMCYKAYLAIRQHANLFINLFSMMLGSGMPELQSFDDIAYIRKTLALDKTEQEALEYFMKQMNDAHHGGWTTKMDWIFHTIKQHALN
Sequence of PI3Kα (P27986 whole entry partner): as the sequence (P27986 whole entry partner, the tested form may be a part, canonical isoform) above

For the compound `C[C@H](Nc1ncnc(N)c1C#Cc1cnccn1)c1nc2cccc(F)c2c(=O)n1-c1ccccc1` [Compound 86a, (S)-2-(1-((6-amino-5-(pyrazin-2-ylethynyl)pyrimidin-4-yl)amino)ethyl)-5-fluoro-3-phenylquinazolin-4(3H)-one], the IC50 in test [1] was < 100 nM; in test [2], > 1 µM; in test [3] (bound given in uM) it was > 1 µM.

As for `CC(=O)c1cccnc1C#Cc1c(N)ncnc1N[C@@H](C)c1nc2cccc(Cl)c2c(=O)n1-c1ccccc1` [Compound 152a, (S)-2-(1-((5-((3-acetylpyridin-2-yl)ethynyl)-6-aminopyrimidin-4-yl)amino)ethyl)-5-chloro-3-phenylquinazolin-4(3H)-one], the IC50 in test [1] was < 100 nM; in test [2], > 1 µM; in test [3] (bound given in uM), > 1 µM.

As to `C[C@H](Nc1ncnc(N)c1C#Cc1cnccn1)c1nc2cccc(F)c2c(=O)n1-c1cccnc1` [Compound 115a, (S)-2-(1-((6-amino-5-(pyrazin-2-ylethynyl)pyrimidin-4-yl)amino)ethyl)-5-fluoro-3-(pyridin-3-yl)quinazolin-4(3H)-one], the IC50 in test [1] is < 100 nM; in test [2], > 1 µM; in test [3] (bound given in uM) it was > 1 µM.

As for `C[C@H](Nc1ncnc(N)c1C#Cc1ccc(C(N)=O)cn1)c1nc2cccc(Cl)c2c(=O)n1-c1ccccc1` [Compound 135a, (S)-6-((4-amino-6-((1-(5-chloro-4-oxo-3-phenyl-3,4-dihydroquinazolin-2-yl)ethyl)amino)pyrimidin-5-yl)ethynyl)nicotinamide], the IC50 in test [1] was < 100 nM; in test [2], > 1 µM; in test [3] (bound given in nM) it was < 0.1 µM.

Turning to `C[C@H](Nc1ncnc(N)c1C#Cc1ccc(F)cn1)c1nc2c(F)cccc2c(=O)n1-c1ccccc1` [Compound 13a, (S)-2-(1-(6-amino-5-((5-fluoropyridin-2-yl)ethynyl)pyrimidin-4-ylamino)ethyl)-8-fluoro-3-phenylquinazolin-4(3H)-one], the IC50 is < 100 nM in test [1], > 1 µM in test [2] and > 1 µM in test [3] (bound given in uM).

As for `C[C@H](Nc1ncnc(N)c1C#Cc1cnccn1)c1nc2cccc(Cl)c2c(=O)n1-c1cccc(Cl)c1` [Compound 89a, (S)-2-(1-((6-amino-5-(pyrazin-2-ylethynyl)pyrimidin-4-yl)amino)ethyl)-5-chloro-3-(3-chlorophenyl)quinazolin-4(3H)-one], the figures for the IC50 in test [1] and in test [2] were < 100 nM and > 1 µM, respectively.

As for `C[C@H](Nc1ncnc(N)c1C#Cc1ncccn1)c1nc2cccc(F)c2c(=O)n1-c1ccccc1` [Compound 109a, 2-(1-((6-amino-5-(pyrimidin-2-ylethynyl)pyrimidin-4-yl)amino)ethyl)-5-fluoro-3-phenylquinazolin-4(3H)-one], the IC50 was < 100 nM in test [1], > 1 µM in test [2] and > 1 µM in test [3] (bound given in uM).

On to `C[C@H](Nc1ncnc(N)c1C#Cc1cnccn1)c1nc2cccc(Cl)c2c(=O)n1-c1cccc(CNS(C)(=O)=O)c1` [Compound 123a, (S)—N-(3-(2-(1-((6-amino-5-(pyrazin-2-ylethynyl)pyrimidin-4-yl)amino)ethyl)-5-chloro-4-oxoquinazolin-3(4H)-yl)benzyl)methanesulfonamide], for which the IC50 in test [1] is < 100 nM; in test [2] it was > 1 µM.

Regarding `Cc1ccc(C#Cc2c(N)ncnc2N[C@@H](C)c2nc3cccc(Cl)c3c(=O)n2-c2ccccc2)nc1` [Compound 133a, (S)-2-(1-((6-amino-5-((5-methylpyridin-2-yl)ethynyl)pyrimidin-4-yl)amino)ethyl)-5-chloro-3-phenylquinazolin-4(3H)-one], the IC50 in test [1] is < 100 nM; in test [2] it was > 1 µM; in test [3] (bound given in nM), < 0.1 µM.

Consider `C[C@H](Nc1ncnc(N)c1C#Cc1ccc(F)cn1)c1nc2c(F)ccc(Cl)c2c(=O)n1-c1ccccc1` [Compound 6a, (S)-2-(1-(6-amino-5-((5-fluoropyridin-2-yl)ethynyl)pyrimidin-4-ylamino)ethyl)-5-chloro-8-fluoro-3-phenylquinazolin-4(3H)-one], for which the figures for the IC50 in test [1] and in test [2] were < 100 nM and > 1 µM, respectively.

Turning to `C[C@H](Nc1ncnc(N)c1C#Cc1cnc(N)cc1C(F)(F)F)c1nc2cccc(Cl)c2c(=O)n1-c1cc(F)cc(F)c1` [Compound 17a, (S)-2-(1-(6-amino-5-((6-amino-4-(trifluoromethyl)pyridin-3-yl)ethynyl)pyrimidin-4-ylamino)ethyl)-5-chloro-3-(3,5-difluorophenyl)quinazolin-4(3H)-one], the 50% inhibitory concentration (IC50) was < 100 nM in test [1] and < 0.1 µM in test [3] (bound given in nM).

Consider `Cc1cccc2nc([C@H](C)Nc3ncnc(N)c3C#Cc3ncccn3)n(-c3ccccc3)c(=O)c12` [Compound 104a, (S)-2-(1-((6-amino-5-(pyrimidin-2-ylethynyl)pyrimidin-4-yl)amino)ethyl)-5-methyl-3-phenylquinazolin-4(3H)-one], for which the IC50 is < 100 nM in test [1] and > 1 µM in test [2].

`C[C@H](Nc1ncnc(N)c1C#Cc1ncccn1)c1nc2cccc(Cl)c2c(=O)n1-c1ccccc1` [Compound 102a, (S)-2-(1-((6-amino-5-(pyrimidin-2-ylethynyl)pyrimidin-4-yl)amino)ethyl)-5-chloro-3-phenylquinazolin-4(3H)-one]: the IC50 in test [1] was < 100 nM; in test [2], > 1 µM.

For the compound `COc1ccc(C#Cc2c(N)ncnc2N[C@@H](C)c2nc3c(Cl)ccc(Cl)c3c(=O)n2-c2ccccc2)nc1` [Compound 10a, (S)-2-(1-(6-amino-5-((5-methoxypyridin-2-yl)ethynyl)pyrimidin-4-ylamino)ethyl)-5,8-dichloro-3-phenylquinazolin-4(3H)-one], the IC50 was < 100 nM in test [1] and > 1 µM in test [2].

Consider `C[C@H](Nc1ncnc(N)c1C#Cc1ccccc1)c1nc2cccc(F)c2c(=O)n1-c1cccnc1` [Compound 116a, (S)-2-(1-((6-amino-5-(phenylethynyl)pyrimidin-4-yl)amino)ethyl)-5-fluoro-3-(pyridin-3-yl)quinazolin-4(3H)-one], for which the IC50 in test [1] was < 100 nM; in test [3] (bound given in uM), > 1 µM.

In the case of `C[C@H](Nc1ncnc(N)c1C#Cc1ccc(F)cn1)c1nc2cccc(Cl)c2c(=O)n1-c1ccccc1` [Compound 48a, (S)-2-(1-(6-amino-5-((5-fluoropyridin-2-yl)ethynyl)pyrimidin-4-ylamino)ethyl)-5-chloro-3-phenylquinazolin-4(3H)-one], the IC50 in test [1] was < 100 nM; in test [2], > 1 µM.

As for `C[C@H](Nc1ncnc(N)c1C#Cc1cccnc1)c1nc2cccc(Cl)c2c(=O)n1-c1ccccc1` [Compound 44a, (S)-2-(1-(6-amino-5-(pyridin-3-ylethynyl)pyrimidin-4-ylamino)ethyl)-5-chloro-3-phenylquinazolin-4(3H)-one], the IC50 was < 100 nM in test [1] and < 0.1 µM in test [3] (bound given in nM).

On to `COc1ccc(C#Cc2c(N)ncnc2N[C@@H](C)c2nc3c(F)cccc3c(=O)n2-c2ccccc2)nc1` [Compound 12a, (S)-2-(1-(6-amino-5-((5-methoxypyridin-2-yl)ethynyl)pyrimidin-4-ylamino)ethyl)-8-fluoro-3-phenylquinazolin-4(3H)-one], for which the figures for the IC50 in test [1] and in test [2] were < 100 nM and > 1 µM, respectively.

In the case of `COc1cc(F)cc(C#Cc2c(N)ncnc2N[C@@H](C)c2nc3cccc(Cl)c3c(=O)n2-c2ccccc2)c1` [Compound 47a, (S)-2-(1-(6-amino-5-((3-fluoro-5-methoxyphenyl)ethynyl)pyrimidin-4-ylamino)ethyl)-5-chloro-3-phenylquinazolin-4(3H)-one], the IC50 in test [1] is < 100 nM; in test [2], > 1 µM.

Take `C[C@H](Nc1nc(N)nc(N)c1C#Cc1ccccc1)c1nc2cccc(Cl)c2c(=O)n1-c1ccccc1` [Compound 25a, 5-chloro-2-(1-((2,6-diamino-5-(phenylethynyl)pyrimidin-4-yl)amino)ethyl)-3-phenylquinazolin-4(3H)-one]: the IC50 is < 100 nM in test [1] and < 0.1 µM in test [3] (bound given in nM).

Take `C[C@H](Nc1ncnc(N)c1C#Cc1ccccc1)c1nc2cccc(F)c2c(=O)n1-c1cccc(F)c1` [Compound 111a, (S)-2-(1-((6-amino-5-(phenylethynyl)pyrimidin-4-yl)amino)ethyl)-5-fluoro-3-(3-fluorophenyl)quinazolin-4(3H)-one]: the concentration for half-maximal inhibition (IC50) in test [1] is < 100 nM; in test [2], > 1 µM.

Consider `C[C@H](Nc1ncnc(N)c1C#Cc1ccccc1)c1nc2cccc(C#N)c2c(=O)n1-c1ccccc1` [Compound 114a, (S)-2-(1-((6-amino-5-(phenylethynyl)pyrimidin-4-yl)amino)ethyl)-4-oxo-3-phenyl-3,4-dihydroquinazoline-5-carbonitrile], for which the IC50 was < 100 nM in test [1] and > 1 µM in test [2].

Take `C[C@H](Nc1ncnc(N)c1C#Cc1cccc(C(F)(F)F)n1)c1nc2cccc(Cl)c2c(=O)n1-c1ccccc1` [Compound 151a, (S)-2-(1-((6-amino-5-((6-(trifluoromethyl)pyridin-2-yl)ethynyl)pyrimidin-4-yl)amino)ethyl)-5-chloro-3-phenylquinazolin-4(3H)-one]: the IC50 in test [1] was < 100 nM; in test [2], > 1 µM.

Values taken from patent publication US9266878B2, “Phosphatidylinositol 3-kinase inhibitors” (Gilead Calistoga LLC, priority 2012, dated 2016).
